Reference: EP0620225B1, “Cephalosporin derivatives” (Basilea Pharmaceutica AG, priority 1993, dated 1994)
Where a name gives a salt, the structure may show the parent alone.

What was measured:
[1] = test system: Ps. aeruginosa 5712; test: MIC, agar dilution method in Mueller Hinton agar; assay type: cell-based; details: Pseudomonas aeruginosa, read-out: Minimum Inhibiting Concentration Values
Description: (§1) In vitro activity was determined by minimum inhibitory concentration in a microorganism spectum by the agar dilution method in Mueller Hinton agar.

[2] = test system: E. coli ATCC 25922; test: MIC, agar dilution method in Mueller Hinton agar; assay type: cell-based; details: Escherichia coli, ATCC25922, read-out: Minimum Inhibiting Concentration Values
Description: as §1

[3] = test system: Staph. aureus ATCC 29213; test: MIC, agar dilution method in Mueller Hinton agar; assay type: cell-based; details: Staphylococcus aureus, ATCC29213, read-out: Minimum Inhibiting Concentration Values
Description: as §1

[4] = test system: Str. pneumoniae 6301; test: MIC, agar dilution method in Mueller Hinton agar; assay type: cell-based; details: Streptococcus pneumoniae, 6301, read-out: Minimum Inhibiting Concentration Values
Description: as §1

[5] = test system: E. coli TEM-1; test: MIC, agar dilution method in Mueller Hinton agar; assay type: cell-based; details: Escherichia coli, TEM1, read-out: Minimum Inhibiting Concentration Values
Description: as §1

[6] = test system: Str. pyogenes 4; test: MIC, agar dilution method in Mueller Hinton agar; assay type: cell-based; details: Streptococcus pyogenes, read-out: Minimum Inhibiting Concentration Values
Description: as §1

[7] = test system: Prot. vulgaris ATCC 6380; test: MIC, agar dilution method in Mueller Hinton agar; assay type: cell-based; details: Proteus vulgaris, ATCC6380, read-out: Minimum Inhibiting Concentration Values
Description: as §1

[8] = test system: Ps. aeruginosa ATCC 27853; test: MIC, agar dilution method in Mueller Hinton agar; assay type: cell-based; details: Pseudomonas aeruginosa, ATCC27853, read-out: Minimum Inhibiting Concentration Values
Description: as §1

[9] = test system: Staph. aureus Smith; test: MIC, agar dilution method in Mueller Hinton agar; assay type: cell-based; details: Staphylococcus aureus, read-out: Minimum Inhibiting Concentration Values
Description: as §1

[10] = test system: Pseudomonas aeruginosa BA; test: Efficacy against systemic infections (septicemia) in mice; assay type: in vivo; details: 96 h, sc (subcutaneous) 1, 3 and 5 h after challenge, survival day 4
Summary of the method: (§2)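 Swiss albino mice (16–20 g) infected i.p. with 4–10× the 48-h LD50 of each strain; compound given p.o. or s.c. at 1 and 3 h post-challenge, plus 5 h for P. aeruginosa BA. Five mice per group; ED50 (mg/kg) by probit analysis of day-4 survival.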

[11] = test system: Streptococcus pyogenes 15; test: as above; assay type: in vivo; details: 96 h, Streptococcus pyogenes 15, po (orally) 1 and 3 h after challenge, survival day 4
Summary of the method: as §2

[12] = test system: Escherichia coli 25922; test: as above; assay type: in vivo; details: 96 h, Escherichia coli 25922, po (orally) 1 and 3 h after challenge, survival day 4
Summary of the method: as §2

Nc1nc(/C(=N/OCC(=O)O)C(=O)N[C@@H]2C(=O)N3C(C(=O)O)=C(/C=C4\CCN(CC(F)(F)F)C4=O)CS[C@H]23)cs1 [A, [6R-[3(E),6α,7β(Z)]]-7-[[(2-Amino-4-thiazolyl)[(carboxy-methoxy)imino]-acetyl]amino]-3-[[1-(2,2,2-trifluoroethyl)-2-oxo-3-pyrrolidinylidene]-methyl]-8-oxo-5-thia-1-aza-bicyclo[4.2.0]oct-2-ene-2-carboxylic acid disodium salt]
MIC [1]: 8 µg/mL
MIC [2]: 0.0625 µg/mL
MIC [3]: 16 µg/mL
MIC [4]: 0.0625 µg/mL
MIC [5]: 0.0625 µg/mL
MIC [6]: 0.125 µg/mL
MIC [7]: ≤ 0.0156 µg/mL
MIC [8]: 8 µg/mL
MIC [9]: 8 µg/mL
ED50 [10]: 12 mg/kg
ED50 [11]: > 0.8 mg/kg
ED50 [12]: < 0.1 mg/kg
